Source: patent US20200172483A1, “HETEROCYCLIC SMALL MOLECULE MODULATORS OF HUMAN STING” (Curadev Pharma Limited, priority 2017, published 2020)

Columns and labels:
[1] = biological target: T1, hSTING (H232) (Homo sapiens, UniProt Q86WV6); assay: Luciferase reporter assay in HEK293T-hSTING-Luciferase cells (H232/REF polymorph); type: cell-based; conditions: EC50 range
T1 construct: host or cells: HEK293T
Description: (§1) • a) Stable STING expressing cells—Stable HEK293T STING-expressing cell lines were generated using plasmids purchased from Invivogen, CA, USA, that contain STING cDNA cloned into the pUNO-1 vector under hEF1-HTLV promoter and containing the Blasticidin selection cassette. The plasmids hSTING (R232), hSTING (H232), hSTING (HAQ) were directly procured from Invivogen while hSTING (AQ) and hSTING (Q) were derived from hSTING (HAQ) and hSTING (R232) plasmids respectively by using a PCR based site directed mutagenesis method. These vectors were individually transfected into HEK293T cells using Lipofectamine (Invitrogen) and transfected cells were selected under Blasticidin selection. These transfected cells were further subjected to clonal selection using the limiting dilution method to obtain clonally pure populations of HEK cells transfected with each of the above mentioned human STING variants. Only those clones were selected in which ligand independent activation of STING was minimal. • b) Stable Luciferase reporter gene expressing cells—Stable HEK293T Luciferase reporter gene expressing cell lines were generated using pCDNA4 plasmids under an IRF-inducible promoter. This promoter is comprised of five tandem interferon-stimulated response elements (ISRE) fused to an ISG54 minimal promoter. This vector was transfected into HEK293T cells using Lipofectamine (Invitrogen) and transfected cells were selected under Zeocin selection. These transfected cells were further subjected to clonal selection using the limiting dilution method to obtain clonally pure populations of HEK cells transfected the Luciferase reporter construct. Only those clones were selected in which ligand independent induction of luciferase was minimal.
(§2) 5×10^5 clonally selected HEK293T-hSTING-Luciferase cells were seeded in 384-well plates in growth medium and stimulated with novel compounds. After 20 hr of stimulation supernatant were removed and secretary reporter gene activity were measured using the Quanti-Luc detection system (Invivogen) on a Spectramax i3X luminometer.
(§3) The 5 major polymorphisms of human STING are shown in FIG. 1, with their prevalence in human populations indicated.

[2] = test system: NF-κB pathway; assay: Reporter gene expression assay for NFκB axis in THP1-Dual cells (secreted SEAP); type: cell-based, human; conditions: Homo sapiens, THP1-Dual, 20 h, 20 hr stimulation, QUANTI-Blue SEAP, EC50 range, read-out: THP-NFKB activity
Method: (§4) THP1-Dual™ cells (Invivogen) were derived from the human THP-1 monocyte cell line by stable integration of two inducible reporter constructs. As a result, THP1-Dual™ cells allow the simultaneous study of the NF-κB pathway, by monitoring the activity of secreted SEAP, and the IRF pathway, by assessing the activity of a secreted luciferase (Lucia). […] THP1-Dual™ cells were seeded in 384-well plates in growth medium and stimulated with novel compounds. After 20 hr of stimulation supernatant were removed and reporter proteins were readily measured in the cell culture supernatant using QUANTI-Blue™ (Invivogen), a SEAP detection reagent, and QUANTI-Luc™ (Invivogen), a luciferase detection reagent on a Spectramax i3X luminometer. EC50 value ranges for exemplary compounds tested in the above assay are given.

[3] = test system: IRF pathway; assay: Reporter gene expression assay for IRF axis in THP1-Dual cells (secreted Lucia luciferase); type: cell-based, human; conditions: Homo sapiens, THP1-Dual, 20 h, 20 hr stimulation, QUANTI-Luc, EC50 range, read-out: THP-IRF activity
Method: as §4

[4] = biological target: T2, hSTING (HAQ) (Homo sapiens, UniProt Q86WV6, G230A/H232R/R293Q/R71H); assay: Luciferase reporter assay in HEK293T-hSTING-Luciferase cells (HAQ polymorph); type: cell-based; conditions: EC50 range
T2 construct: host or cells: HEK293T
Description: as §1, §2, §3

[5] = biological target: T3, WT/R232 STING protein (Homo sapiens, UniProt Q86WV6, H232R); assay: Luciferase reporter assay in HEK293T-hSTING-Luciferase cells (R232); type: cell-based; conditions: 20 hr stimulation, EC50 range
T3 construct: host or cells: HEK293T
Method in brief: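 Readout is fold-induction over baseline of secreted luciferase, measured by luminescence after 20 hr compound stimulation. Cells: clonally selected HEK293T stably carrying hSTING (R232) and a luciferase reporter under five tandem ISREs fused to an ISG54 minimal promoter.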

T3 sequence (Q86WV6 whole entry H232R): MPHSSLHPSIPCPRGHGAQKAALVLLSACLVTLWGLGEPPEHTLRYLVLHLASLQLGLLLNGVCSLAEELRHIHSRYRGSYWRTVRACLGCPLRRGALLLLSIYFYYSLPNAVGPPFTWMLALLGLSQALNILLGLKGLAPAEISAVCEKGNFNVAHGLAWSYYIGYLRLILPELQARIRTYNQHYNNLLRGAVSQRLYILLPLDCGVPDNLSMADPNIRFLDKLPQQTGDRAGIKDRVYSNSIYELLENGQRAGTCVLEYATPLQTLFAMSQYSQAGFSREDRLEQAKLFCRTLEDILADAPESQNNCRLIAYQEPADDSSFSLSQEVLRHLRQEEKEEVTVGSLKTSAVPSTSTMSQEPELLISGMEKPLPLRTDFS
T2 sequence (Q86WV6 whole entry R71H/G230A/H232R/R293Q): as the sequence (Q86WV6 whole entry H232R) above, with R71H, G230A, R293Q counted along it
T1 sequence (Q86WV6 whole entry): as the sequence (Q86WV6 whole entry H232R) above, with R232H counted along it

| Structure (SMILES) | EC50 [1] | EC50 [2] | EC50 [3] | EC50 [4] | EC50 [5] |
| --- | --- | --- | --- | --- | --- |
| CC1(C)C(=O)N(Cc2cccc(C(N)=O)c2)c2cc(C(=O)NCc3c(F)cc(F)cc3F)ccc21 [Example 37, 1-(3-carbamoylbenzyl)-3,3-dimethyl-2-oxo-N-(2,4,6-trifluorobenzyl)indoline-6-carboxamide] | 1 to 10 µM | > 10 µM | > 10 µM | > 10 µM | 1 to 10 µM |
| CC1(C)C(=O)N(Cc2cc(F)cc(F)c2)c2cc(C(=O)NCc3ccc(N=[N+]=[N-])cc3)ccc21 [Example 48, N-(4-azidobenzyl)-1-(3,5-difluorobenzyl)-3,3-dimethyl-2-oxoindoline-6-carboxamide] | 1 to 10 µM | > 10 µM | > 10 µM | 1 to 10 µM | 1 to 10 µM |
| Cc1ccc(CNC(=O)c2ccc3c(c2)N(Cc2c(F)cccc2F)C(=O)C3(C)C)o1 [Example 50, 1-(2,6-difluorobenzyl)-3,3-dimethyl-N-((5-methylfuran-2-yl)methyl)-2-oxoindoline-6-carboxamide] | 1 to 10 µM | > 10 µM | > 10 µM | 1 to 10 µM | 1 to 10 µM |
| Cc1cc(CN2C(=O)C(C)(C)c3ccc(C(=O)NCc4c(F)cc(F)cc4F)cc32)ccn1 [Example 54, 3,3-dimethyl-1-((2-methylpyridin-4-yl)methyl)-2-oxo-N-(2,4,6-trifluorobenzyl)indoline-6-carboxamide] | 1 to 10 µM | > 10 µM | > 10 µM | 1 to 10 µM | 1 to 10 µM |
| CC1(C)C(=O)N(Cc2ccc(N=[N+]=[N-])cc2)c2cc(C(=O)NCc3c(F)cc(F)cc3F)ccc21 [Example 56, 1-(4-azidobenzyl)-3,3-dimethyl-2-oxo-N-(2,4,6-trifluorobenzyl)indoline-6-carboxamide] | 1 to 10 µM | > 10 µM | > 10 µM | 1 to 10 µM | ≤ 1 µM |
| CC1(C)C(=O)N(Cc2cccc(N=[N+]=[N-])c2)c2cc(C(=O)NCc3c(F)cc(F)cc3F)ccc21 [Example 57, 1-(3-azidobenzyl)-3,3-dimethyl-2-oxo-N-(2,4,6-triflurobenzyl)indoline-6-carboxamide] | 1 to 10 µM | > 10 µM | > 10 µM | 1 to 10 µM | 1 to 10 µM |
| Cc1ccc(CNC(=O)c2ccc3c(c2)N(Cc2ccc(F)cc2)C(=O)C3(C)C)o1 [Example 60, 1-(4-fluorobenzyl)-3,3-dimethyl-N-((5-methylfuran-2-yl)methyl)-2-oxoindoline-6-carboxamide] | > 10 µM | > 10 µM | > 10 µM | 1 to 10 µM | 1 to 10 µM |
| Cc1ccc(CNC(=O)c2ccc3c(c2)N(Cc2cccc(F)c2F)C(=O)C3(C)C)o1 [Example 61, 1-(2,3-difluorobenzyl)-3,3-dimethyl-N-((5-methylfuran-2-yl)methyl)-2-oxoindoline-6-carboxamide] | 1 to 10 µM | > 10 µM | > 10 µM | 1 to 10 µM | 1 to 10 µM |
| Cc1ccc(CNC(=O)c2ccc3c(c2)N(Cc2c(C)cccc2F)C(=O)C3(C)C)o1 [Example 63, 1-(2-fluoro-6-methylbenzyl)-3,3-dimethyl-N-((5-methylfuran-2-yl)methyl)-2-oxoindoline-6-carboxamide] | 1 to 10 µM | > 10 µM | > 10 µM | 1 to 10 µM | ≤ 1 µM |
| Cc1cc(CN2C(=O)C(C)(C)c3ccc(C(=O)NCc4c(F)cc(F)cc4F)cc32)no1 [Example 70, 3,3-dimethyl-1-((5-methylisoxazol-3-yl)methyl)-2-oxo-N-(2,4,6-trifluorobenzyl)indoline-6-carboxamide] | 1 to 10 µM | > 10 µM | > 10 µM | 1 to 10 µM | 1 to 10 µM |
| CC1(C)C(=O)N(Cc2c(F)cccc2Cl)c2cc(C(=O)NCc3ccc4occc4c3)ccc21 [Example 71, N-(benzofuran-5-ylmethyl)-1-(2-chloro-6-fluorobenzyl)-3,3-dimethyl-2-oxoindoline-6-carboxamide] | 1 to 10 µM | 1 to 10 µM | > 10 µM | 1 to 10 µM | 1 to 10 µM |
| CC1(C)C(=O)N(Cc2c(F)cccc2Cl)c2cc(C(=O)NCc3ccccc3F)ccc21 [Example 72, 1-(2-chloro-6-fluorobenzyl)-N-(2-fluorobenzyl)-3,3-dimethyl-2-oxoindoline-6-carboxamide] | 1 to 10 µM | 1 to 10 µM | > 10 µM | 1 to 10 µM | ≤ 1 µM |

Now from value to compound:

| EC50 [1] | EC50 [2] | EC50 [3] | EC50 [4] | EC50 [5] | Structure (SMILES) |
| --- | --- | --- | --- | --- | --- |
| ≤ 1 µM | 1 to 10 µM | 1 to 10 µM | ≤ 1 µM | ≤ 1 µM | Cc1cccc(CN2C(=O)C(C)(C)c3ccc(C(=O)NCc4c(F)cc(F)cc4F)cc32)c1F [Example 73, 1-(2-fluoro-3-methylbenzyl)-3,3-dimethyl-2-oxo-N-(2,4,6-trifluorobenzyl)indoline-6-carboxamide] |
| ≤ 1 µM | 1 to 10 µM | 1 to 10 µM | ≤ 1 µM | ≤ 1 µM | CC1(C)C(=O)N(Cc2c(F)cccc2Cl)c2cc(C(=O)NCc3cc4ccc(F)cc4o3)ccc21 [Example 74, 1-(2-chloro-6-fluorobenzyl)-N-((6-fluorobenzofuran-2-yl)methyl)-3,3-dimethyl-2-oxoindoline-6-carboxamide] |
| ≤ 1 µM | 1 to 10 µM | 1 to 10 µM | ≤ 1 µM | ≤ 1 µM | CC1(C)C(=O)N(Cc2c(F)cccc2Cl)c2cc(C(=O)NCc3cc4cc(F)ccc4o3)ccc21 [Example 75, 1-(2-chloro-6-fluorobenzyl)-N-((5-fluorobenzofuran-2-yl)methyl)-3,3-dimethyl-2-oxoindoline-6-carboxamide] |
| 1 to 10 µM | > 10 µM | > 10 µM | 1 to 10 µM | 1 to 10 µM | CC1(C)C(=O)N(Cc2c(F)cccc2C#N)c2cc(C(=O)NCc3c(F)cc(F)cc3F)ccc21 [Example 76, 1-(2-cyano-6-fluorobenzyl)-3,3-dimethyl-2-oxo-N-(2,4,6-trifluorobenzyl)indoline-6-carboxamide] |
| 1 to 10 µM | 1 to 10 µM | 1 to 10 µM | 1 to 10 µM | 1 to 10 µM | Cc1cc(CN2C(=O)C(C)(C)c3ccc(C(=O)NCc4c(F)cc(F)cc4F)cc32)nn1C [Example 81, 1-((1,5-dimethyl-1H-pyrazol-3-yl)methyl)-3,3-dimethyl-2-oxo-N-(2,4,6-trifluorobenzyl)indoline-6-carboxamide] |
| 1 to 10 µM | 1 to 10 µM | 1 to 10 µM | 1 to 10 µM | ≤ 1 µM | Cc1cc(CN2C(=O)C(C)(C)c3ccc(C(=O)NCc4c(F)cc(F)cc4F)cc32)n(C)n1 [Example 82, 1-((1,3-dimethyl-1H-pyrazol-5-yl)methyl)-3,3-dimethyl-2-oxo-N-(2,4,6-trifluorobenzyl)indoline-6-carboxamide] |
| ≤ 1 µM | 1 to 10 µM | 1 to 10 µM | ≤ 1 µM | ≤ 1 µM | COc1cc(F)cc(CN2C(=O)C(C)(C)c3ccc(C(=O)NCc4c(F)cc(F)cc4F)cc32)c1 [Example 89, 1-(3-fluoro-5-methoxybenzyl)-3,3-dimethyl-2-oxo-N-(2,4,6-trifluorobenzyl)indoline-6-carboxamide] |
| 1 to 10 µM | 1 to 10 µM | 1 to 10 µM | 1 to 10 µM | ≤ 1 µM | CC1(C)C(=O)N(Cc2c(F)cccc2Cl)c2cc(C(=O)NCc3ccc4ccoc4c3)ccc21 [Example 90, N-(benzofuran-6-ylmethyl)-1-(2-chloro-6-fluorobenzyl)-3,3-dimethyl-2-oxoindoline-6-carboxamide] |
